Test results reported in patent publication US20240016777A1, “COMPOUNDS AND METHODS FOR TREATING VIRAL INFECTIONS” (priority 2020, published 2024).

Target: SARS-CoV-2 M^pro (Severe acute respiratory syndrome coronavirus 2 (2019-nCoV) (SARS-CoV-2), UniProt P0DTD1)
Test: biochemical
Conditions: not given

In the case of COc1ccc(-c2cc(=O)c3c(O)cc(O)cc3o2)cc1-c1c(O)cc(O)c2c(=O)cc(-c3ccc(O)cc3)oc12 [bilobetin], the “Mpro inhibitory activity (comparison in words)” value is reported as “comparable to amentoflavone”.

Same assay, conditions: compound at 17 μM, duplicates, 20 min pre-incubation; read-out: Activity (% enzyme activity by fluorescence relative to initial enzyme activity)

First: COc1cc(O)c2c(c1CC=C(C)C)O[C@H](c1cc(CC=C(C)C)c(O)cc1O)CC2=O [Maackiaflavanone]
Second: CC(C)=CCC/C(C)=C\Cc1c(O)cc(O)c2c1O[C@H](c1ccc(O)cc1O)CC2=O [sophoraflavanone C]
The remaining activity at 17 µM of the first is lower: under 10% for the first, 10 to 80% for the second.

Same assay, conditions: compounds evaluated at 0.015-300 μM; read-out: IC50

Compared with COc1cc(O)c2c(c1CC=C(C)C)O[C@H](c1cc(CC=C(C)C)c(O)cc1O)CC2=O [Maackiaflavanone], CC(C)=CCC/C(C)=C\Cc1c(O)cc(O)c2c1O[C@H](c1ccc(O)cc1O)CC2=O [sophoraflavanone C] is 21-fold higher in IC50: 3 µM for the first, 63 µM for the second.

Same assay, conditions: read-out: Activity (% enzyme activity by fluorescence relative to initial enzyme activity), compound at 17 μM, duplicates, 20 min pre-incubation

Compared with COc1cc2c(c(OC)c1CC=C(C)C)C[C@H](c1ccc(O)cc1O)CO2 [Glyasperin D], COc1c(CC=C(C)C)c(O)cc2c1CC(c1ccc(O)cc1O)CO2 (stereo not drawn) [Glyasperin C] is higher in remaining activity at 17 µM: 10 to 80% for the first, over 80% for the second.

Compared with CC(C)=CCC/C(C)=C/Cc1c(O)cc2c(c1O)C(=O)C[C@@H](c1ccc(O)cc1)O2 [6-Geranylnaringenin], CC(C)=CCc1c(O)cc(O)c2c1O[C@H](c1ccc(O)cc1)CC2=O [8-Prenylnaringenin] is lower in remaining activity at 17 µM: over 80% for the first, 10 to 80% for the second.

CC(C)=CCc1c(O)c(CC=C(C)C)c2occc(=O)c2c1O [Eriosemation] and CC(C)=CCc1cc(-c2oc3c(CC=C(C)C)c(O)cc(O)c3c(=O)c2O)ccc1O [Broussoflavonol F] cannot be ordered by remaining activity at 17 µM: over 80% for the first, over 80% for the second.

CC(C)=CCc1c(O)cc(O)c2c1O[C@H](c1ccc(O)cc1)[C@@H](O)C2=O [neophellamuretin] and CC(C)=CCc1c(O[C@@H]2O[C@H](CO)[C@@H](O)[C@H](O)[C@H]2O)cc(O)c2c1O[C@H](c1ccc(O)cc1)[C@@H](O)C2=O [Phellamurin] cannot be ordered by remaining activity at 17 µM: over 80% for the first, over 80% for the second.

First: CC(C)=CCc1c2c(c(O)c3c(=O)c(-c4ccc(O)c(O)c4)coc13)C=CC(C)(C)O2 [Auriculasin]
Second: C=C(C)C(O)Cc1c(O)c(CC=C(C)C)c(O)c2c(=O)c(-c3ccc(O)c(O)c3)coc12 (stereo not drawn) [millewanin H]
The remaining activity at 17 µM of the first is higher: over 80% for the first, 10 to 80% for the second.

CC(C)=CCc1cc([C@H]2Oc3cc(O)cc(O)c3C(=O)[C@@H]2O)cc(CC=C(C)C)c1O [Cathayanon H] and CC(C)=CCc1cc([C@@H]2CC(=O)c3c(O)cc(O)cc3O2)cc(CC=C(C)C)c1O [abyssinone V] cannot be ordered by remaining activity at 17 µM: over 80% for the first, over 80% for the second.

CC(C)=CCc1c(O)cc2oc(-c3ccc(O)cc3)cc(=O)c2c1O [4′,5,7-Trihydroxy-6-prenylflavone] and CC(C)=CCc1c(O)cc2oc(-c3ccc(O)cc3)c(O)c(=O)c2c1O [Licoflavonol] cannot be ordered by remaining activity at 17 µM: over 80% for the first, over 80% for the second.

CC(C)=CCc1c(O)ccc([C@H]2COc3cc(O)cc(O)c3C2=O)c1O [Dihydrolicoisoflavone] and CC(C)=CCc1c(O)cc2c(c1O)C(=O)[C@@]1(O)c3ccc(O)cc3O[C@H]1O2 [Lupinol C] cannot be ordered by remaining activity at 17 µM: over 80% for the first, over 80% for the second.

COc1ccc(-c2oc3c(CC=C(C)C)c(O[C@@H]4O[C@H](CO)[C@@H](O)[C@H](O)[C@H]4O)cc(O)c3c(=O)c2O[C@@H]2O[C@@H](C)[C@H](O)[C@@H](O)[C@H]2O[C@@H]2O[C@H](CO)[C@@H](O)[C@H](O)[C@H]2O)cc1 [Epimedin A] and COc1ccc(-c2oc3c(CC=C(C)C)c(O[C@@H]4O[C@H](CO)[C@@H](O)[C@H](O)[C@H]4O)cc(O)c3c(=O)c2O[C@@H]2O[C@@H](C)[C@H](O[C@@H]3OC[C@@H](O)[C@H](O)[C@H]3O)[C@@H](O)[C@H]2O)cc1 [Epimedin B1] fall in the same range of remaining activity at 17 µM: 10 to 80% for the first, 10 to 80% for the second.

C=C(C)[C@H](CCC(C)(C)O)Cc1c(O)cc(OC)c2c1O[C@H](c1ccc(O)cc1O)[C@H](O)C2=O [Kushenol K] and C=C(C)C(CC=C(C)C)Cc1c(O)cc(O)c2c1O[C@H](c1ccc(O)cc1O)[C@@H](O)C2=O (stereo partly drawn) [Kushenol X] cannot be ordered by remaining activity at 17 µM: over 80% for the first, over 80% for the second.

CC(C)=CCc1c(O)cc(O)c2c(=O)c(O[C@@H]3O[C@@H](C)[C@H](O)[C@@H](O)[C@H]3O)c(-c3ccc(O)cc3)oc12 [Baohuoside II] and COc1ccc(-c2oc3c(CC=C(C)C)c(O)cc(O)c3c(=O)c2O[C@@H]2O[C@@H](C)[C@H](O)[C@@H](O)[C@H]2O[C@@H]2OC[C@@H](O)[C@H](O)[C@H]2O)cc1 [Sagittatoside B] cannot be ordered by remaining activity at 17 µM: over 80% for the first, over 80% for the second.

COc1c(O)cc2oc(-c3cc(CC=C(C)C)c(O)c(CC=C(C)C)c3)c(OC)c(=O)c2c1O [5,7,4′-Trihydroxy-3,6-dimethoxy-3′,5′-diprenylflavone] and COc1c(O)cc2oc(-c3cc(CC=C(C)C)c(O)c(CCC(C)CO)c3)c(OC)c(=O)c2c1O (stereo not drawn) [5′-Prenylaliarin] cannot be ordered by remaining activity at 17 µM: over 80% for the first, over 80% for the second.

First: CC(C)=CCc1cc2c(cc1O)O[C@H](c1ccc(O)cc1)CC2=O [Bavachin]
Second: CC(C)=CCc1cc(-c2coc3cc(O)ccc3c2=O)ccc1O [Neobavaisoflavone]
The remaining activity at 17 µM of the first is higher: over 80% for the first, 10 to 80% for the second.

First: COc1ccc(-c2oc3c(CC=C(C)C)c(O[C@@H]4O[C@H](CO)[C@@H](O)[C@H](O)[C@H]4O)cc(O)c3c(=O)c2O[C@@H]2O[C@@H](C)[C@H](OC(C)=O)[C@@H](O)[C@H]2O[C@@H]2O[C@H](COC(C)=O)[C@@H](O)[C@H](OC(C)=O)[C@H]2O)cc1 [Epimedin K]
Second: COc1ccc(-c2oc3c(CC=C(C)C)c(O)cc(O)c3c(=O)c2O[C@@H]2O[C@@H](C)[C@H](OC(C)=O)[C@@H](O[C@@H]3O[C@H](COC(C)=O)[C@@H](O)[C@H](O)[C@H]3O)[C@H]2O)cc1 [Korepimedoside A]
The remaining activity at 17 µM of the first is higher: over 80% for the first, 10 to 80% for the second.

First: COc1c(C2=Cc3ccc(O)cc3OC2)ccc(O)c1CC=C(C)C [Bidwillol A]
Second: CC(C)=CCc1c(-c2ccc(O)cc2O)oc2cc3c(c(O)c2c1=O)C=CC(C)(C)O3 [Cudraflavone B]
The remaining activity at 17 µM of the first is higher: over 80% for the first, 10 to 80% for the second.

First: C=C(C)[C@H](CC=C(C)C)Cc1c(O)cc(O)c2c1OC(c1cc3c(cc1O)O[C@@H](c1ccc(O)cc1)[C@@H]3c1cc(O)cc(O)c1)CC2=O (stereo partly drawn) [Sophoraflavanone I]
Second: COc1cc([C@@H]2CC(=O)c3c(O)cc(O)c(CC=C(C)C)c3O2)c(O)cc1O [Kushenol W]
The remaining activity at 17 µM of the first is lower: 10 to 80% for the first, over 80% for the second.

First: CC(C)=CCCC1(C)C=Cc2c(cc3c(c2O)C(=O)C[C@@H](c2ccc(O)cc2O)O3)O1 (stereo partly drawn) [Kuwanol C]
Second: CC(C)=CCc1c(O)cc(O)c2c1O[C@H](c1ccc3c(c1)C=CC(C)(C)O3)CC2=O [Euchrenone A10]
The remaining activity at 17 µM of the first is lower: 10 to 80% for the first, over 80% for the second.

First: COc1ccc(-c2oc3c(CC=C(C)C)c(O)cc(O)c3c(=O)c2O[C@@H]2O[C@@H](C)[C@H](O[C@@H]3O[C@H](CO)[C@@H](O)[C@H](O)[C@H]3O)[C@@H](O)[C@H]2O)cc1 [Baohuoside VII]
Second: CC(C)=CCc1c(O)cc(O)c2c(=O)c(O)c(-c3ccc(O)cc3)oc12 [8-Prenylkaempferol]
The remaining activity at 17 µM of the first is lower: 10 to 80% for the first, over 80% for the second.

CC(C)=CCc1c(O)cc(O)c2c(=O)cc(-c3cc(O)c4c(c3)C(O)C(C(C)(C)O)O4)oc12 (stereo not drawn) [Epimedokoreanin C] and COc1c(-c2ccc(O)c(O)c2)oc2cc(O)c(CC=C(C)C)c(O)c2c1=O [6-Prenylquercetin-3-methylether] cannot be ordered by remaining activity at 17 µM: over 80% for the first, over 80% for the second.

C=C(C)C(O)Cc1cc(-c2coc3cc(O)c(CC=C(C)C)c(O)c3c2=O)ccc1O (stereo not drawn) [Derrisisoflavone B] and CC(C)=CCc1cc([C@@H]2CC(=O)c3c(O)cc(O)c(CC=C(C)C)c3O2)ccc1O [Euchrestaflavanone A] cannot be ordered by remaining activity at 17 µM: over 80% for the first, over 80% for the second.
